Structures are written as SMILES.

One may read the EC50 as the concentration at which the effect is half-maximal.

The test concerns the target T1, recombinant human pancreatic GLK (Homo sapiens, UniProt P35557).
T1 sequence (P35557 1-465): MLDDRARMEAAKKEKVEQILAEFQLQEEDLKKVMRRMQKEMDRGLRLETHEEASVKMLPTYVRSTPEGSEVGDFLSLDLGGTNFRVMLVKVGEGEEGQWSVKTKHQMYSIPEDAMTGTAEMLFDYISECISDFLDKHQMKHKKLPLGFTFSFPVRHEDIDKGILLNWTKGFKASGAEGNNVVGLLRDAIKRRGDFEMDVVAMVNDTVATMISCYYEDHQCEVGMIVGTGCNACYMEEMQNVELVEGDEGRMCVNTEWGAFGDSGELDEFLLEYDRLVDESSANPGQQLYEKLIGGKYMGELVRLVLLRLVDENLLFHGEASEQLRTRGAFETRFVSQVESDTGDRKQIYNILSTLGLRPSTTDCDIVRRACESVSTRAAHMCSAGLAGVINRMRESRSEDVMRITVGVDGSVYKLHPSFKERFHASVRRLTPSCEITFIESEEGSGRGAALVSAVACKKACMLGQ
Briefly: biochemical.
As to `Cc1ccc(NC(=O)C(CCS(C)(=O)=O)Oc2ncnc3c2cnn3C)nc1` (centres unmarked) [2-(1-methylpyrazolo[4,5-e]pyrimidin-4-yl)oxy-N-(5-methyl-2-pyridyl)-4-methylsulfonyl-butanamide], the concentration giving a half-maximal response (EC50) is above 100 µM.

`Cc1nnc(NC(=O)C(COC(C)C)Oc2ncnc3c2cnn3-c2ccccc2Cl)o1` (centres unmarked) [2-[1-(2-chlorophenyl)pyrazolo[4,5-e]pyrimidin-4-yl]oxy-3-isopropoxy-N-(5-methyl-1,3,4-oxadiazol-2-yl)propanamide]: the EC50 was above 100 µM.

For `CC(C)OCC(Oc1ncnc2c1cnn2-c1ccccc1Cl)C(=O)Nc1ncccn1` (centres unmarked) [2-[1-(2-chlorophenyl)pyrazolo[4,5-e]pyrimidin-4-yl]oxy-3-isopropoxy-N-pyrimidin-2-yl-propanamide], the EC50 was above 100 µM.

With `CC(C)OCC(Oc1ncnc2c1cnn2-c1ccccc1Cl)C(=O)Nc1cc(C#N)ccn1` (centres unmarked) [2-[1-(2-chlorophenyl)pyrazolo[4,5-e]pyrimidin-4-yl]oxy-N-(4-cyano-2-pyridyl)-3-isopropoxy-propanamide], the EC50 is above 100 µM.

For the molecule `COCCOCCC(Sc1ncnc2c1cnn2-c1ccccc1Cl)C(=O)Nc1ccc(C)cn1` (centres unmarked) [2-[1-(2-chlorophenyl)pyrazolo[4,5-e]pyrimidin-4-yl]sulfanyl-4-(2-methoxyethoxy)-N-(5-methyl-2-pyridyl)butanamide], the concentration for a half-maximal effect (EC50) was above 100 µM.

With `CCCCCCC(Sc1ncnc2c1cnn2-c1ccccc1Cl)C(=O)Nc1ccc(C)cn1` (centres unmarked) [2-[1-(2-chlorophenyl)pyrazolo[4,5-e]pyrimidin-4-yl]sulfanyl-N-(5-methyl-2-pyridyl)octanamide], the EC50 is above 100 µM.

For `Cc1cccnc1NC(=O)[C@H](COC(C)C)Oc1ncnc2c1cnn2-c1ncccc1Cl` [(2S)-2-[1-(3-chloro-2-pyridyl)pyrazolo[4,5-e]pyrimidin-4-yl]oxy-3-isopropoxy-N-(3-methyl-2-pyridyl)propanamide], the half-maximal effective concentration (EC50) is above 100 µM.

For the molecule `COc1ccnc(NC(=O)[C@H](COC(C)C)Oc2ncnc3c2cnn3-c2ncccc2Cl)c1` [(2S)-2-[1-(3-chloro-2-pyridyl)pyrazolo[4,5-e]pyrimidin-4-yl]oxy-3-isopropoxy-N-(4-methoxy-2-pyridyl)propanamide], the concentration for a half-maximal effect (EC50) is above 100 µM.

Turning to `Cc1nc(NC(=O)[C@H](COC(C)C)Oc2ncnc3c2cnn3-c2ncccc2Cl)nn1C` [(2S)-2-[1-(3-chloro-2-pyridyl)pyrazolo[4,5-e]pyrimidin-4-yl]oxy-N-(1,5-dimethyl-1,2,4-triazol-3-yl)-3-isopropoxy-propanamide], the EC50 is above 100 µM.

As for `COc1ccccc1-n1ncc2c(O[C@H](C)C(=O)Nc3ccc(C)cn3)ncnc21` [(R)-2-[1-(2-methoxyphenyl)pyrazolo[4,5-e]pyrimidin-4-yl]oxy-N-(5-methyl-2-pyridyl)propanamide], the concentration for a half-maximal effect (EC50) was above 100 µM.

For `COCC[C@@H](Oc1ncnc2c1cnn2-c1ccccn1)C(=O)Nc1ccc(C)cn1` [(R)-4-methoxy-N-(5-methyl-2-pyridyl)-2-[1-(2-pyridyl)pyrazolo[4,5-e]pyrimidin-4-yl]oxy-butanamide], the EC50 is above 100 µM.

Turning to `COCC(Oc1ncnc2c1cnn2-c1ccccc1Cl)C(=O)Nc1ccc(C)cn1` (centres unmarked) [Example 1, 2-{[1-(2-chlorophenyl)-1H-pyrazolo[3,4-d]pyrimidin-4-yl]oxy}-3-methoxy-N-(5-methylpyridin-2-yl)propanamide], the EC50 worked out at 0.62 µM.

In the case of `COC[C@@H](Oc1ncnc2c1cnn2-c1ccccc1Cl)C(=O)Nc1ccc(C)cn1` [Example 2, (R)-2-{[1-(2-chlorophenyl)-1H-pyrazolo[3,4-d]pyrimidin-4-yl]oxy}-3-methoxy-N-(5-methylpyridin-2-yl)propanamide], the 50% effective concentration (EC50) is at least 100 µM.

With `COC[C@H](Oc1ncnc2c1cnn2-c1ccccc1Cl)C(=O)Nc1ccc(C)cn1` [Example 3, (S)-2-{[1-(2-chlorophenyl)-1H-pyrazolo[3,4-d]pyrimidin-4-yl]oxy}-3-methoxy-N-(5-methylpyridin-2-yl)propanamide], the 50% effective concentration (EC50) is 0.17 µM.

For `COCC(Oc1ncnc2c1cnn2-c1ccccc1OC)C(=O)Nc1ccc(C)cn1` (centres unmarked) [Example 4, 3-methoxy-2-{[1-(2-methoxyphenyl)-1H-pyrazolo[3,4-d]pyrimidin-4-yl]oxy}-N-(5-methylpyridin-2-yl)propanamide], the EC50 was 3.4 µM.

Turning to `COC[C@@H](Oc1ncnc2c1cnn2-c1ccccc1OC)C(=O)Nc1ccc(C)cn1` [Example 5, (R)-3-methoxy-2-{[1-(2-methoxyphenyl)-1H-pyrazolo[3,4-d]pyrimidin-4-yl]oxy}-N-(5-methylpyridin-2-yl)propanamide], the EC50 is at least 100 µM.

For `COC[C@H](Oc1ncnc2c1cnn2-c1ccccc1OC)C(=O)Nc1ccc(C)cn1` [Example 6, (S)-3-methoxy-2-{[1-(2-methoxyphenyl)-1H-pyrazolo[3,4-d]pyrimidin-4-yl]oxy}-N-(5-methylpyridin-2-yl)propanamide], the EC50 worked out at 0.68 µM.

In the case of `COCC(Oc1ncnc2c1cnn2-c1ccc(Cl)cc1Cl)C(=O)Nc1ccc(C)cn1` (centres unmarked) [Example 7, 2-{[1-(2,4-Dichlorophenyl)-1H-pyrazolo[3,4-d]pyrimidin-4-yl]oxy}-3-methoxy-N-(5-methylpyridin-2-yl)propanamide], the half-maximal effective concentration (EC50) stood at 3.7 µM.

For `COCC(Oc1ncnc2c1cnn2C)C(=O)Nc1ccc(C)cn1` (centres unmarked) [Example 8, 3-methoxy-2-[(1-methyl-1H-pyrazolo[3,4-d]pyrimidin-4-yl)oxy]-N-(5-methylpyridin-2-yl)propanamide], the 50% effective concentration (EC50) is at least 100 µM.

Consider `Cc1ccc(NC(=O)C(CCS(C)(=O)=O)Oc2ncnc3c2cnn3-c2ccccc2Cl)nc1` (centres unmarked) [Example 9, 2-{[1-(2-chlorophenyl)-1H-pyrazolo[3,4-d]pyrimidin-4-yl]oxy}-N-(5-methylpyridin-2-yl)-4-(methylsulfonyl)butanamide], for which the EC50 is 0.52 µM.

With `COc1ccccc1-n1ncc2c(OC(CCS(C)(=O)=O)C(=O)Nc3ccc(C)cn3)ncnc21` (centres unmarked) [Example 10, 2-{[1-(2-methoxyphenyl)-1H-pyrazolo[3,4-d]pyrimidin-4-yl]oxy}-N-(5-methylpyridin-2-yl)-4-(methylsulfonyl)butanamide], the EC50 turned out to be 2.7 µM.

For the molecule `COc1ccccc1-n1ncc2c(O[C@H](CCS(C)(=O)=O)C(=O)Nc3ccc(C)cn3)ncnc21` [Example 11, (R)-2-{[1-(2-methoxyphenyl)-1H-pyrazolo[3,4-d]pyrimidin-4-yl]oxy}-N-(5-methylpyridin-2-yl)-4-(methylsulfonyl)butanamide], the EC50 was at least 100 µM.

In the case of `COc1ccccc1-n1ncc2c(O[C@@H](CCS(C)(=O)=O)C(=O)Nc3ccc(C)cn3)ncnc21` [Example 12, (S)-2-{[1-(2-methoxyphenyl)-1H-pyrazolo[3,4-d]pyrimidin-4-yl]oxy}-N-(5-methylpyridin-2-yl)-4-(methylsulfonyl)butanamide], the EC50 was found to be 2.4 µM.

Take `COCCC(Oc1ncnc2c1cnn2-c1cccc(OC)c1)C(=O)Nc1ccc(C)cn1` (centres unmarked) [Example 13, 4-methoxy-2-{[1-(3-methoxyphenyl)-1H-pyrazolo[3,4-d]pyrimidin-4-yl]oxy}-N-(5-methylpyridin-2-yl)butanamide]: the 50% effective concentration (EC50) amounted to 1.4 µM.

For `COCC[C@@H](Oc1ncnc2c1cnn2-c1cccc(OC)c1)C(=O)Nc1ccc(C)cn1` [Example 14, (R)-4-methoxy-2-{[1-(3-methoxyphenyl)-1H-pyrazolo[3,4-d]pyrimidin-4-yl]oxy}-N-(5-methylpyridin-2-yl)butanamide], the concentration for a half-maximal effect (EC50) is at least 100 µM.

Take `COCC[C@H](Oc1ncnc2c1cnn2-c1cccc(OC)c1)C(=O)Nc1ccc(C)cn1` [Example 15, (S)-4-methoxy-2-{[1-(3-methoxyphenyl)-1H-pyrazolo[3,4-d]pyrimidin-4-yl]oxy}-N-(5-methylpyridin-2-yl)butanamide]: the half-maximal effective concentration (EC50) came to 2.7 µM.

Consider `COCCC(Oc1ncnc2c1cnn2-c1ccccc1C)C(=O)Nc1ccc(C)cn1` (centres unmarked) [Example 16, 4-methoxy-2-{[1-(2-methylphenyl)-1H-pyrazolo[3,4-d]pyrimidin-4-yl]oxy}-N-(5-methylpyridin-2-yl)butanamide], for which the EC50 was found to be 0.29 µM.

With `COCC[C@H](Oc1ncnc2c1cnn2-c1ccccc1C)C(=O)Nc1ccc(C)cn1` [Example 17, (S)-4-methoxy-2-{[1-(2-methylphenyl)-1H-pyrazolo[3,4-d]pyrimidin-4-yl]oxy}-N-(5-methylpyridin-2-yl)butanamide], the EC50 is 0.064 µM.

Take `COCC[C@@H](Oc1ncnc2c1cnn2-c1ccccc1C)C(=O)Nc1ccc(C)cn1` [Example 18, (R)-4-methoxy-2-{[1-(2-methylphenyl)-1H-pyrazolo[3,4-d]pyrimidin-4-yl]oxy}-N-(5-methylpyridin-2-yl)butanamide]: the EC50 came out at 32 µM.

As to `COCCC(Oc1ncnc2c1cnn2-c1ccccc1Cl)C(=O)Nc1ccc(C)cn1` (centres unmarked) [Example 19, 2-{[1-(2-Chlorophenyl)-1H-pyrazolo[3,4-d]pyrimidin-4-yl]oxy}-4-methoxy-N-(5-methylpyridin-2-yl)butanamide], the EC50 stood at 0.095 µM.

Turning to `COCC[C@@H](Oc1ncnc2c1cnn2-c1ccccc1Cl)C(=O)Nc1ccc(C)cn1` [Example 20, (R)-2-{[1-(2-Chlorophenyl)-1H-pyrazolo[3,4-d]pyrimidin-4-yl]oxy}-4-methoxy-N-(5-methylpyridin-2-yl)butanamide], the EC50 amounted to 9.3 µM.

On to `COCC[C@H](Oc1ncnc2c1cnn2-c1ccccc1Cl)C(=O)Nc1ccc(C)cn1` [Example 21, (S)-2-{[1-(2-chlorophenyl)-1H-pyrazolo[3,4-d]pyrimidin-4-yl]oxy}-4-methoxy-N-(5-methylpyridin-2-yl)butanamide], for which the EC50 worked out at 0.032 µM.
